Measurements from ChEMBL document CHEMBL2406999, “Vialinin A is a ubiquitin-specific peptidase inhibitor” (Bioorg Med Chem Lett, 2013).
Calls of active or inactive are those of the source. No cut-off for these calls is given here.

Legend:
[1] = molecular target: T1, Ubiquitin carboxyl-terminal hydrolase isozyme L3 (Homo sapiens) (UniProt P15374); test: Inhibition of human UCH-L3 using Ub-AMC as substrate at 1 to 30 uM after 60 mins by fluorometric analysis
T1 sequence (whole entry): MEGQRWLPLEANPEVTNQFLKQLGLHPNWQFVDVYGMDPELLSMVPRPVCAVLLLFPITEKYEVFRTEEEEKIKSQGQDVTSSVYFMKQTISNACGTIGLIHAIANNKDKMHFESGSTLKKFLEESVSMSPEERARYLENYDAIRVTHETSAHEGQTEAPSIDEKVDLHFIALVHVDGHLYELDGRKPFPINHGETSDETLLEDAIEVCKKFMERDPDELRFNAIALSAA

[2] = molecular target: Cathepsin B (Homo sapiens) (UniProt P07858); test: Inhibition of cathepsin B (unknown origin) at 6.3 uM after 20 mins by fluorometric analysis

## O=C(Cc1ccccc1)Oc1c(OC(=O)Cc2ccccc2)c(-c2ccc(O)cc2)c(O)c(O)c1-c1ccc(O)cc1 [VIALININ A]
[1]
  inhibition: inactive
[2]
  inhibition: inactive
